Reference: US20250034139A1, “AMINE COMPOUNDS HAVING ANTI-INFLAMMATORY, ANTIFUNGAL, ANTIPARASITIC, AND ANTICANCER ACTIVITY” (PHARMA CINQ, LLC, priority 2013, published 2025)
Marks after values point to notes of the source that are not given here.

How the values were obtained:
[1] = test system: TPA induced chronic skin inflammation; assay: Example E: TPA induced chronic skin inflammation mouse model, ear thickness; type: in vivo; settings: day 22, 0.05 mg/ear daily topical from day 7, TPA-treated mice
Text: Objective: To evaluate the anti-inflammatory properties of compounds of the invention in a 12-O-tetradecanoylphorbol-13-acetate (TPA) induced chronic skin inflammation mouse model.
Topically applied phorbol esters such as TPA induce skin inflammation involving edema, macrophage and T cell infiltration and epidermal hyperplasia (Alford et al., 1992), and this system has been used as an animal model for dermatitis, mimicking aspects of human inflammatory skin disorders. TPA is also known as a tumor promoter, so that agents which inhibit hyperproliferative or angiogenic actions of TPA may inhibit tumor promotion.
Drug formulations: Compound AC was dissolved in isopropyl myristate:propylene glycol (1:1)+0.9% DMSO at the indicated concentrations. TPA was dissolved in acetone:water (99:1). Dexamethasone (0.06%) was dissolved in normal saline.
Mice: HSD-ICR(CD-1R) female mice at 8-10 weeks of age were used in this experiment.
Experimental Design: Mice were placed into six groups of 10 mice each. 20 μL of 0.01% TPA was administered to each ear on days 0, 2, 4, 7, 9, 11, 13, 15, 18, 20, and 22. 20 μL of AC at various concentrations or 20 μL of dexamethasone solution was applied to the ears daily beginning on day 7, after inflammatory changes in ear thickness were established. Ear thickness was measured with calipers every three days.

[2] = test system: imiquimod-induced dermatitis
Description: Topical imiquimod (IMQ), a toll-like receptor agonist, has been established as a model of Inflammatory skin diseases including psoriasis and atopic dermatitis. Dermal inflammatory changes and gene expression in mice treated with topical imiquimod mimic human psoriasis and dermatitis (van der Fits et al., 2009; Swindell et al., 2011). The effect of a set of compounds of the invention were tested in a mouse model of imiquimod-induced dermatitis, with topical tacrolimus and dexamethasone as comparators for assessing safety and efficacy relative to standard agents used to treat dermatitis in humans.
Commercial 0.1% tacrolimus ointment (ProTopic™[…]) was also used as an active comparator. Petrolatum containing 10% ethanol was used as a control treatment.
Female Balb/C mice (8 weeks old) were randomized and divided into groups of 5 animals each. Polyethylene collars were affixed to the mice to prevent them from easily scratching their ears. 5% imiquimod was applied to both ears of each mouse (20 microliters per ear) daily for 5 days, and then every other day for the full duration of the study. […] On day 7 after initiation of imiquimod, treatment with topical agents was started. Both ears of each mouse were treated with test ointments, with one compound per mouse.
Ear thickness and PASI assessments (Psoriasis Area and Severity Index, a standard psoriasis scoring system) were recorded twice per week throughout the study. The PASI score comprises the sum of evaluations of swelling, erythema and scaling on scales from 0 to 4; the maximum PASI score is 12, and the minimum, in unaffected skin, is 0).

D BW (g) ([2]; mouse, in vivo): −2.4 * g
Hair growth on the imiquimod-affected head area, in words ([2]; mouse, in vivo): remained hairless
Compound: C[C@@H]1C[C@H]2[C@@H]3CCC4=CC(=O)C=C[C@]4(C)[C@@]3(F)[C@@H](O)C[C@]2(C)[C@@]1(O)C(=O)CO [Dexamethasone, reference compound]
Ear thickness (mm) [1]: 0.301 ± 0.0722 mm
Ear thickness, Mean ± SEM ([2]; imiquimod-treated mice, topical ointment 0.06% active drug (dexamethasone 0.03%, tacrolimus 0.1%)): 0.305 ± 0.111
Body Weight (mean ± SEM), Final ([2]; mouse, in vivo): 18.1 ± 0.5 g
Body Weight (mean ± SEM), Initial ([2]; mouse, in vivo): 20.5 ± 0.6 g
PASI Score, Mean ± SEM ([2]; scale 0-12, topical ointment 0.06% active drug (dexamethasone 0.03%, tacrolimus 0.1%)): 4.525 ± 0.375
